According to ChEMBL document CHEMBL1153497, “Development of antitubercular compounds based on a 4-quinolylhydrazone scaffold. Further structure-activity relationship studies” (Bioorg Med Chem, 2009):
Converted amounts (≈) assume the structure as drawn. “And” between values parts separate entries of the source, which are not always exact repeats. Identical values can stand only once.

Experiments:
[1] = test system: Mycobacterium tuberculosis; test: Antitubercular activity against Mycobacterium tuberculosis H37Rv at 6.25 ug/mL by broth microdilution method; type: functional
[2] = test system: Mycobacterium tuberculosis; test: Antitubercular activity against Mycobacterium tuberculosis H37Rv by microplate alamar blue assay; type: functional
Vero [3] = test: Cytotoxicity against african green monkey Vero cells after 72 hrs by MTT assay; type: cell-based; settings: Chlorocebus sabaeus
[4] = Selectivity index, IC50 for african green monkey Vero cells to MIC for Mycobacterium tuberculosis H37Rv; type: functional
Vero [5] = test: Cytotoxicity against african green monkey Vero cells at > 2.5 ug/mL after 72 hrs by MTT assay; type: cell-based; settings: Chlorocebus sabaeus
[6] = test system: Mycobacterium tuberculosis; test: Antitubercular activity against Mycobacterium tuberculosis isolate UC0802 by microplate alamar blue assay; type: functional
[7] = test system: Mycobacterium tuberculosis; test: Antitubercular activity against Mycobacterium tuberculosis H37Rv assessed as CFU treated on day 7 measured after 14 days; type: functional, organism-based
[8] = test system: Mycobacterium tuberculosis; test: Antitubercular activity against Mycobacterium tuberculosis isolate UC0801 by microplate alamar blue assay; type: functional
[9] = test system: Mycobacterium tuberculosis; test: Antitubercular activity against Mycobacterium tuberculosis isolate UC0803 by microplate alamar blue assay; type: functional
[10] = test system: Mycobacterium tuberculosis; test: Antitubercular activity against Mycobacterium tuberculosis isolate UC0804 by microplate alamar blue assay; type: functional

Structure (SMILES)	inhibition at 6.25 µg/mL [1] [%]	MIC [2]	also measured
COc1cccc2c(N/N=C/c3ccc4c(c3)OCO4)ccnc12	31		
Cc1cc(N/N=C/c2ccc3ccccc3c2)c2cc3c(cc2n1)OCO3	100		
COc1ccc2c(N/N=C/c3ccc4ccccc4n3)ccnc2c1	99	9.5 µM	
Cc1cc(N/N=C/c2cccc(O)c2)c2cc3c(cc2n1)OCO3	100		
COc1ccc(/C=N/Nc2ccnc3cc(OC)ccc23)cc1	100	9.8 µM	
Cc1cc(N/N=C/c2ccc3c(c2)OCO3)c2cc3c(cc2n1)OCO3	100	4.5 µM	IC50 (Vero [3]): 0.22 µg/mL (≈ 0.63 µM); Selectivity Index [4]: 0.14
COc1ccc2c(N/N=C/c3ccc4ccccc4n3)cc(C)nc2c1	100	4.6 µM	IC50 (Vero [3]): 0.12 µg/mL (≈ 0.35 µM); Selectivity Index [4]: 0.08
COc1ccc2c(N/N=C/c3ccc4c(c3)OCO4)ccnc2c1	100	9.7 µM	
COc1ccc(/C=N/Nc2cc(C)nc3cc(OC)ccc23)cc1	99	19.5 µM	
COc1ccc2cc(/C=N/Nc3ccnc4cc(OC)ccc34)ccc2c1	100	0.6 µM	IC50 (Vero [3]): 0.211 µg/mL (≈ 0.59 µM); Selectivity Index [4]: 1.05
COc1ccc2nccc(N/N=C/C3CCCCC3)c2c1	99	11.1 µM	IC50 (Vero [3]): 5.03 µg/mL (≈ 17.8 µM); Selectivity Index [4]: 3.44
COc1ccc(/C=N/Nc2cc(C)nc3ccc(OC)cc23)cc1	100	4.8 µM	
COc1ccc(/C=N/Nc2cc(C)nc3cc4c(cc23)OCO4)c2ccccc12	100	4 µM	IC50 (Vero [3]): 0.24 µg/mL (≈ 0.623 µM); Selectivity Index [4]: 0.15
Cc1cc(N/N=C/c2ccc(F)cc2)c2cc3c(cc2n1)OCO3	100	19.3 µM	
COc1ccc(/C=N/Nc2cc(C)nc3cc4c(cc23)OCO4)cc1	100	9.3 µM	
Cc1cc(N/N=C/c2ccccc2)c2cc3c(cc2n1)OCO3	100	2.6 µM and 0.5 µg/mL	Activity (Vero [5]): Toxic; MIC [6]: 1 µg/mL (≈ 3.28 µM); Activity [7]: Dose-dependent effect; MIC [8]: 0.12 µg/mL (≈ 0.393 µM); MIC [9]: 0.25 µg/mL (≈ 0.819 µM); MIC [10]: 0.12 µg/mL (≈ 0.393 µM)
COc1cccc2c(N/N=C/c3cccc4ccccc34)ccnc12	100		
Cc1cc(N/N=C/c2ccc[nH]2)c2cc3c(cc2n1)OCO3	100	10.6 µM	
COc1cccc2c(N/N=C/c3ccc4ccccc4n3)ccnc12	99	4.8 µM	IC50 (Vero [3]): 1.68 µg/mL (≈ 5.12 µM); Selectivity Index [4]: 1.08
COc1ccc2c(N/N=C/c3ccc(O)cc3)ccnc2c1	100	5.3 µM	IC50 (Vero [3]): 3.66 µg/mL (≈ 12.5 µM); Selectivity Index [4]: 2.53

Structure (SMILES)	inhibition at 6.25 µg/mL [1] [%]	MIC [2]	also measured
Cc1cc(N/N=C/c2ncc[nH]2)c2cc3c(cc2n1)OCO3	100	5.3 µg/mL	IC50 (Vero [3]): > 100 µg/mL; Selectivity Index [4]: >66
COc1cccc(/C=N/Nc2cc(C)nc3cc4c(cc23)OCO4)c1	100	9.3 µM	
COc1ccc2nc(C)cc(N/N=C/c3ccc4c(c3)OCO4)c2c1	100	4.8 µM	
COc1ccc2c(N/N=C/c3ccc(N(C)C)cc3)ccnc2c1	100	4.9 µM	IC50 (Vero [3]): 0.26 µg/mL (≈ 0.811 µM); Selectivity Index [4]: 0.17
COc1ccc2c(N/N=C/c3ccccc3)ccnc2c1	100	16.4 µM	
C(=N\Nc1ccnc2cc3c(cc12)OCO3)/C1CCCCC1	74		
Cc1cc(N/N=C/c2ccnc3ccccc23)c2cc3c(cc2n1)OCO3	100		
COc1ccc(/C=N/Nc2cc(C)nc3cc4c(cc23)OCO4)cc1OC	100		
COc1ccc2c(N/N=C/c3cccc(O)c3)ccnc2c1	100	2.7 µM	IC50 (Vero [3]): 1.09 µg/mL (≈ 3.72 µM); Selectivity Index [4]: 1.59
COc1cccc2c(N/N=C/c3ccnc4ccccc34)cc(C)nc12	98	9.1 µM	
CCOc1ccc2c(N/N=C/c3ccc(OC)cc3)cc(C)nc2c1	20		
COc1ccc2nccc(N/N=C/c3ccc4c(c3)OCO4)c2c1	100	2.4 µM	
COc1cccc2c(N/N=C/c3ccc4ccccc4n3)cc(C)nc12	100	4.7 µM	IC50 (Vero [3]): 3.11 µg/mL (≈ 9.08 µM); Selectivity Index [4]: 1.99
COc1ccc2ccccc2c1/C=N/Nc1cc(C)nc2cc3c(cc12)OCO3	100		
COc1cccc2c(N/N=C/c3ccc(N(C)C)cc3)ccnc12	100	19.5 µM	
COc1ccc2c(/C=N/Nc3ccnc4cc(OC)ccc34)ccnc2c1	100	2.2 µM	
CCOc1ccc2c(N/N=C/c3ccncc3)cc(C)nc2c1	78		
NNC(=O)c1ccncc1 [ISONIAZID]		0.36 µM and 0.05 µg/mL	MIC [6]: 0.25 µg/mL (≈ 1.82 µM); MIC [8]: 0.05 µg/mL (≈ 0.365 µM); MIC [9]: 0.05 µg/mL (≈ 0.365 µM); MIC [10]: 0.05 µg/mL (≈ 0.365 µM)
Cc1cc(N/N=C/c2ccncc2)c2cc3c(cc2n1)OCO3	87		
COc1cccc2c(N/N=C/c3ccc4c(c3)OCO4)cc(C)nc12	95		

Structure (SMILES)	inhibition at 6.25 µg/mL [1] [%]	MIC [2]	also measured
COc1ccc2c(N/N=C/c3ccc[nH]3)ccnc2c1	99	11.8 µM	
CCOc1ccc2c(N/N=C/c3ccc4c(c3)OCO4)cc(C)nc2c1	98	9 µM	
COc1ccc2c(N/N=C/c3ccnc4ccccc34)cc(C)nc2c1	100	4.6 µM	
COc1cccc2c(N/N=C/c3cccc4ccccc34)cc(C)nc12	99	9.3 µM	
COc1ccc2nccc(N/N=C/c3ccc(N(C)C)cc3)c2c1	100	19.5 µM	
COc1ccc2c(N/N=C/c3ccc4ccccc4c3)ccnc2c1	100	0.6 µM	IC50 (Vero [3]): 0.454 µg/mL (≈ 1.39 µM); Selectivity Index [4]: 2.27
COc1ccc2c(N/N=C/c3ccnc4ccccc34)ccnc2c1	100	9.5 µM	
CCOc1ccc2c(N/N=C/c3ccc(OC)cc3)ccnc2c1	100	9.7 µM	
Cc1cc(N/N=C/c2ccccn2)c2cc3c(cc2n1)OCO3	74		
COc1ccc2cc(/C=N/Nc3cc(C)nc4cc5c(cc34)OCO5)ccc2c1	100		
COc1cccc2c(N/N=C/c3ccccc3)ccnc12	99	11.3 µM	
CCN(CC)c1ccc(/C=N/Nc2cc(C)nc3cc4c(cc23)OCO4)cc1	100	8.3 µM	
CCOc1ccc2c(N/N=C/c3ccncc3)ccnc2c1	26		
Cc1cc(N/N=C/c2ccc(O)cc2)c2cc3c(cc2n1)OCO3	100		
CO[C@H]1/C=C/O[C@@]2(C)Oc3c(C)c(O)c4c(O)c(c(/C=N/N5CCN(C)CC5)c(O)c4c3C2=O)NC(=O)/C(C)=C\C=C\[C@H](C)[C@H](O)[C@@H](C)[C@@H](O)[C@@H](C)[C@H](OC(C)=O)[C@@H]1C [RIFAMPIN]		0.037 µM	
Cc1cc(N/N=C/C2CCCCC2)c2cc3c(cc2n1)OCO3	9		
CCOc1ccc2c(N/N=C/c3ccc4c(c3)OCO4)ccnc2c1	48		
COc1ccc2nc(C)cc(N/N=C/c3ccc(N(C)C)cc3)c2c1	100	9.4 µM	
COc1ccc(/C=N/Nc2ccnc3cc4c(cc23)OCO4)cc1	100	4.8 µM	
COc1ccc(/C=N/Nc2ccnc3ccc(OC)cc23)cc1	100	10.2 µM	
